The values below are quoted from earlier work in patent US12208399B2, “Electrochemical separation and recovery of metals” (YALE UNIVERSITY, priority 2017, dated 2025).

≈ marks a conversion by molar mass, not a printed value.

For `Cc1cc2nc3c(=O)[nH]c(=O)nc-3n(C[C@@H](O)[C@@H](O)[C@@H](O)COP(=O)(O)O)c2cc1C` [RMP, riboflavin 5′-monophosphate], the Solubility in water was 100 mg/mL (≈ 219 mM). Turning to `O=C1C(Cl)=CC(=Nc2ccc(O)cc2)C=C1Cl` [DCIP, 2,6-dichloroindophenol], the Solubility in water was 10 mg/mL (≈ 37.3 mM).
